Measurements published in ChEMBL document CHEMBL1153129, “Multiple bond-conjugated photoinduced nitric oxide releaser working with two-photon excitation” (Bioorg Med Chem Lett, 2010).

What was measured:
[1] = Induction of NO release per molar ratio of compound at 250 uM irradiated with 400 to 440 nm light in presence of Fe-DETC complex by ESR spectrometry; assay type: physicochemical
[2] = Induction of NO release per molar ratio of compound at 250 uM irradiated with 450 to 480 nm light in presence of Fe-DETC complex by ESR spectrometry; assay type: physicochemical

Activity [1] [%] | Activity [2] [%] | Compound
9.2 |  | COc1cc(/C=C/c2cc(C)c([N+](=O)[O-])c(C)c2)c(OC)cc1C#Cc1cc(OC)c(/C=C/c2cc(C)c([N+](=O)[O-])c(C)c2)cc1OC
1 | 0.86 | COc1cc(/C=C/c2cc(OC)c(/C=C/c3cc(C)c([N+](=O)[O-])c(C)c3)cc2OC)c(OC)cc1/C=C/c1cc(C)c([N+](=O)[O-])c(C)c1
9.7 |  | COc1cc(/C=C/c2cc(C)c([N+](=O)[O-])c(C)c2)c(OC)cc1C#CC#Cc1cc(OC)c(/C=C/c2cc(C)c([N+](=O)[O-])c(C)c2)cc1OC
0.96 | 0.54 | COc1cc(/C=C/c2cc(C)c([N+](=O)[O-])c(C)c2)c(OC)cc1/C=C/C=C/c1cc(OC)c(/C=C/c2cc(C)c([N+](=O)[O-])c(C)c2)cc1OC
